The record followed here is patent publication US20240391931A1 (Bristol-Myers Squibb Company, priority 2021, published 2024).

Holding throughout (type): cell-based
Test [1] deals with T1, HER2 (Homo sapiens, UniProt P04626).
T1 construct: BT474 and N87 cell lines which endogenously overexpress the HER2 wildtype (WT) protein; endogenous in cells; host or cells: BT474, N87
Kind of test: HER2 occupancy assay in N87 cells. The following applies: concentration at which 50% of HER2 is irreversible bound, read-out: N87 HER2 Occ. As to the method: (§1) In order to assess free HER2 protein, a biotinylated probe was utilized. BT474, N87, and Ba/F3-HER2YVMA cells were treated with test compound as described for HER2 signaling. After compound treatment, cells were washed three times with cold phosphate buffer saline (PBS, Life Technologies, Carlsbad, CA), and lysed in modified occupancy lysis buffer prepared with an irreversible biotinylated tool compound (1 μM) in 25 mM Tris pH 7.5, 150 mM NaCl, 1% Triton, and supplemented with cOmplete, EDTA-free Protease inhibitor cocktail (Roche), Phosphatase Inhibitor Cocktails 2 and 3 (Sigma-Aldrich), and 1 mM PMSF (Sigma-Aldrich).
(§2) To determine % occupancy, lysates were loaded into duplicate plates of the phospho (Tyr1248)/total ErbB2 whole cell lysate MSD kit (Meso-Scale Discovery) and incubated overnight. Plates were washed and incubation with either HER2-sulfoTag (1:50, Meso Scale Discovery) or Strep-Sulfo Tag (1:1000, Meso Scale Discovery), for detection of […]. A standard curve of untreated cells in serial dilution was included in each plate to independently fit streptavidin (Free HER2) and total HER2 MSD signals; non-specific signal (BSA control spots) was subtracted from each well. Free HER2 was then normalized by total HER2 for each sample. The results are reported as % DMSO control. The normalized data was fitted using a sigmoidal curve analysis program (Graph Pad Prism version 6) with variable Hill slope to determine EC50 values. The results are provided in Table 4, under columns titled “BT474-HER2 Occ”, “N87-HER2 Occ”, and “Ba/F3 YVMA-HER2 Occ”. HER2 Occ is the concentration of test compound at which 50% of HER2 is irreversible bound.

Another test addresses HER2YVMA (Homo sapiens, UniProt P04626, INS775YVMA). As to the kind of experiment: HER2 signaling (pHER2) in BEAS2B-HER2YVMA cells. Also noted: expressed in transfected cells; host or cells: HEK293 (pool), Ba/F3 (clones), BEAS2B (clones); lentiviral vector pCDH-CMV-MCS-EF1-Neo. The following applies: read-out: BEAS2B YVMA pHER2 EC50. As to the method: Cell culture, plasmid cloning, and lentiviral transduction were carried out according to standard procedures. The Human HER2 cDNA construct in pCMV6-Entry for the HER2 wildtype (WT) expression was obtained from Origene. The HER2 cDNA including the 12-nucleotide insertion corresponding to YVMA insertion (HER2YVMA) was codon optimized, synthesized and cloned by GenScript (Piscataway, NJ) in pcDNA3.1. The lentiviral constructs expressing HER2YVMA and HER2 WT were sub-cloned using PCR at System Biosciences (SBI, Mountainview, CA) into lentiviral vectors pCDH-CMV-MCS-EF1-Neo and lentiviral particles were generated.
Engineered lines expressing HER2YVMA and HER2 WT were prepared in HEK293 (human embryonic kidney cells), Ba/F3 (Interleukin 3 (IL3)-dependent murine pro B cell line), and BEAS2B (primary immortalized human bronchial epithelial cell line). […]
HER2 signaling was assessed in BT474 and N87 cell lines which endogenously overexpress the HER2 wildtype (WT) protein, in NCI-H1781 cells which endogenously expresses a HER2 mutant protein containing a VC insertion in the kinase domain (HER2VC or G776delinsVC), and in engineered cell lines transduced to express the Her2 mutant protein containing the YVMA insertion (Hek293-HER2YVMA and BEAS2B-HER2YVMA). […]
HER2 signaling was evaluated using phospho (Tyr1248)/total ErbB2 whole cell lysate MSD plates (Meso-Scale Discovery, Gaithersburg, MD). […]

The target in test [2] is T1, HER2. As to the kind of experiment: HER2 occupancy assay in BT474 cells. Particulars: concentration at which 50% of HER2 is irreversible bound, read-out: BT474 HER2 Occ. As to the method:
as §1, §2

T1 sequence (P04626 23-1255): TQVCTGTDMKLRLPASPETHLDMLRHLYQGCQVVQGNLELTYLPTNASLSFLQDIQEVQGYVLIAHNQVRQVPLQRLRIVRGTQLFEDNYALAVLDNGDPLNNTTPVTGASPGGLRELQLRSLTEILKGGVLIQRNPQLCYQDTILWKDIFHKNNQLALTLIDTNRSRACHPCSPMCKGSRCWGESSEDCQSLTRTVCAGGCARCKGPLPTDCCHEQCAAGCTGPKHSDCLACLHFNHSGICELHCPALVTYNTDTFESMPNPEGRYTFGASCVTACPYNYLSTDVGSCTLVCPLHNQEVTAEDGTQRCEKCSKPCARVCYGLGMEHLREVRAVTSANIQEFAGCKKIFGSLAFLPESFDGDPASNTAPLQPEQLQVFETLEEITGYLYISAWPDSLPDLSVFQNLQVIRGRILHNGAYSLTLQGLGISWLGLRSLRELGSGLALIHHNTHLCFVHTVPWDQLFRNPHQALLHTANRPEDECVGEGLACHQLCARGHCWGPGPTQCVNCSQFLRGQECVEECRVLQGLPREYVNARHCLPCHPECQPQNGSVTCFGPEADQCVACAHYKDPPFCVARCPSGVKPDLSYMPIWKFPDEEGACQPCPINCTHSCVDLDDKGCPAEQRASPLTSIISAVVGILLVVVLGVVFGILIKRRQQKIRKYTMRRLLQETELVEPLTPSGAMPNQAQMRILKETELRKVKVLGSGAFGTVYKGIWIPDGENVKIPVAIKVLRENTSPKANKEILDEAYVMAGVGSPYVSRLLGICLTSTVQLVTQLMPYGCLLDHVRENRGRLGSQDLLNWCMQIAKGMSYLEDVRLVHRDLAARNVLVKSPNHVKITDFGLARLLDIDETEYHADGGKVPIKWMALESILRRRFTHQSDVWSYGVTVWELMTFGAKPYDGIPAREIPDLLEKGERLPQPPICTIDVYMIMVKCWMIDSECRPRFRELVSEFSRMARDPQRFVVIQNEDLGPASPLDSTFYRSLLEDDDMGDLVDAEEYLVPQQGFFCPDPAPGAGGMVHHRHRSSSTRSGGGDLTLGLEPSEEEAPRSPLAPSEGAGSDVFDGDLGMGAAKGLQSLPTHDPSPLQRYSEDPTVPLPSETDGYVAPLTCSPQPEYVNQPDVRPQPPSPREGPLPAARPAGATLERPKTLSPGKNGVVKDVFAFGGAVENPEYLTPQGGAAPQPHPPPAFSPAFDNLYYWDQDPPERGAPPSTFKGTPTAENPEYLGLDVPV
Sequence of HER2YVMA (P04626 with tags, fused parts or gaps INS775YVMA): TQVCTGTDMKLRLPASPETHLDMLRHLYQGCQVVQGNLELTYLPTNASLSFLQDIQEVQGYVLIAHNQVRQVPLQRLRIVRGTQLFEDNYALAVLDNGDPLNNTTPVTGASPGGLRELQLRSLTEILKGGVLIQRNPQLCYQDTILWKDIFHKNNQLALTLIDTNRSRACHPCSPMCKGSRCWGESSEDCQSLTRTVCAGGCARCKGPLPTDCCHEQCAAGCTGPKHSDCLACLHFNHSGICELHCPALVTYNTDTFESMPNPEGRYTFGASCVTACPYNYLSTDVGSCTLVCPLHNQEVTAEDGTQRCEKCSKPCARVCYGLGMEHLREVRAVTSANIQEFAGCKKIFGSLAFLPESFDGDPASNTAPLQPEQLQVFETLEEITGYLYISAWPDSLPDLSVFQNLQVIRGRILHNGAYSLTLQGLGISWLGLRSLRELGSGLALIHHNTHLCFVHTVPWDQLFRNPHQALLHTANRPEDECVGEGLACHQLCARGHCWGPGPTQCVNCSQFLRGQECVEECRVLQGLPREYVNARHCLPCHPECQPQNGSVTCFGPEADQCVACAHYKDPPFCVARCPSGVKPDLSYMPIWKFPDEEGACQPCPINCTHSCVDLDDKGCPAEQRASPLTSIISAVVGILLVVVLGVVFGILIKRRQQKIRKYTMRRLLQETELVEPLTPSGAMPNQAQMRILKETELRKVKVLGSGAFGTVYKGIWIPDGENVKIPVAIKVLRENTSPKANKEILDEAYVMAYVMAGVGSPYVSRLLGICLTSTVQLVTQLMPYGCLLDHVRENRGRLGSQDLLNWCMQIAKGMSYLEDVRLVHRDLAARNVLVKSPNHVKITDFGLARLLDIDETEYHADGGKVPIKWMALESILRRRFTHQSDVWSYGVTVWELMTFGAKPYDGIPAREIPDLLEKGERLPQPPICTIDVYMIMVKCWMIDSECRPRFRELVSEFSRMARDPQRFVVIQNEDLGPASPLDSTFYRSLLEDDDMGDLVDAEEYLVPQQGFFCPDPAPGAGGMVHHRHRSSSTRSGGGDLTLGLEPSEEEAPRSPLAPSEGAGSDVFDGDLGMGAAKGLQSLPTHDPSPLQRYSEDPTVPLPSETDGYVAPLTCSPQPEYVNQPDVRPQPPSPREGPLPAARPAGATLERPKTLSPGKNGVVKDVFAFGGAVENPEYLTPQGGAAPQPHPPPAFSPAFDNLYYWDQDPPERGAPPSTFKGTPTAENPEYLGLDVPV

As for `COc1ccc(Oc2ccc(Nc3ncnc4sc5c(c34)CCN(C(=O)/C=C/CN(C)C)C5)cc2C)cn1` [Compound 95, (E)-4-(Dimethylamino)-1-(4-((4-((6-methoxypyridin-3-yl)oxy)-3-methylphenyl)amino)-5,6-dihydropyrido[4′,3′:4,5]thieno[2,3-d]pyrimidin-7(8H)-yl)but-2-en-1-one], the EC50 on HER2 [1] and on HER2YVMA was < 100 nM in each case.
Consider `CN(C)C/C=C/C(=O)N1CCc2c(sc3ncnc(Nc4ccc(Oc5ccc6ncnn6c5)c(Cl)c4)c23)C1` [Compound 5, (E)-1-(4-((4-([1,2,4]triazolo[1,5-a]pyridin-6-yloxy)-3-chlorophenyl)amino)-5,8-dihydropyrido[4′,3′:4,5]thieno[2,3-d]pyrimidin-7(6H)-yl)-4-(dimethylamino)but-2-en-1-one], for which the EC50 on HER2 [1] and at HER2 [2] was < 100 nM in each case.
